Test results reported in PubChem BioAssay AID1963970 (Molecular Pharmacology Branch, DTP, NCI, 2024).

Tested on: 931267-113-T-J1-PDC multicell spheroid viability
Assay: Anticancer human tumor 931267-113-T-J1-PDC patient-derived colon adenocarcinoma cell line growth inhibition [PI3K]
Conditions: for viability, T/C: stronger effect = lower value
Outline: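 Stroma-containing spheroids: tumor line, pooled-donor HUVEC, hMSC. Treatments: targeted agents with PI3K inhibitors. Dosing: clinically relevant, half-log spacing, 10 microM ceiling without known Cmax. Read-out: cell viability.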

[1] = curve of first compound, second compound 0.0316 µM
[2] = curve of first compound, second compound 0.1 µM
[3] = curve of first compound, second compound 0.316 µM
[4] = curve of first compound, second compound 1 µM
[5] = curve of first compound, second compound 3.16 µM
[6] = curve of first compound, second compound 10 µM
[7] = second compound 0.0316 µM, first compound 0.0316 µM
[8] = second compound 0.0316 µM, first compound 0.1 µM
[9] = second compound 0.0316 µM, first compound 0.316 µM
[10] = second compound 0.0316 µM, first compound 1 µM
[11] = second compound 0.0316 µM, first compound 3.16 µM
[12] = second compound 0.0316 µM, first compound 10 µM
[13] = second compound 0.1 µM, first compound 0.0316 µM
[14] = second compound 0.1 µM, first compound 0.1 µM
[15] = second compound 0.1 µM, first compound 0.316 µM
[16] = second compound 0.1 µM, first compound 1 µM
[17] = second compound 0.1 µM, first compound 3.16 µM
[18] = second compound 0.1 µM, first compound 10 µM
[19] = second compound 0.316 µM, first compound 0.0316 µM
[20] = second compound 0.316 µM, first compound 0.1 µM
[21] = second compound 0.316 µM, first compound 0.316 µM
[22] = second compound 0.316 µM, first compound 1 µM
[23] = second compound 0.316 µM, first compound 3.16 µM
[24] = second compound 0.316 µM, first compound 10 µM
[25] = second compound 1 µM, first compound 0.0316 µM
[26] = second compound 1 µM, first compound 0.1 µM
[27] = second compound 1 µM, first compound 0.316 µM
[28] = second compound 1 µM, first compound 1 µM
[29] = second compound 1 µM, first compound 3.16 µM
[30] = second compound 1 µM, first compound 10 µM
[31] = second compound 3.16 µM, first compound 0.0316 µM
[32] = second compound 3.16 µM, first compound 0.1 µM
[33] = second compound 3.16 µM, first compound 0.316 µM
[34] = second compound 3.16 µM, first compound 1 µM
[35] = second compound 10 µM, first compound 0.0316 µM
[36] = second compound 10 µM, first compound 0.1 µM
[37] = second compound 10 µM, first compound 0.316 µM
[38] = second compound 10 µM, first compound 1 µM
[39] = curve of first compound, second compound 0.00316 µM
[40] = curve of first compound, second compound 0.01 µM
[41] = second compound 0.00316 µM, first compound 0.0316 µM
[42] = second compound 0.00316 µM, first compound 0.1 µM
[43] = second compound 0.00316 µM, first compound 0.316 µM
[44] = second compound 0.00316 µM, first compound 1 µM
[45] = second compound 0.00316 µM, first compound 3.16 µM
[46] = second compound 0.00316 µM, first compound 10 µM
[47] = second compound 0.01 µM, first compound 0.0316 µM
[48] = second compound 0.01 µM, first compound 0.1 µM
[49] = second compound 0.01 µM, first compound 0.316 µM
[50] = second compound 0.01 µM, first compound 1 µM
[51] = second compound 0.01 µM, first compound 3.16 µM
[52] = second compound 0.01 µM, first compound 10 µM
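Also: viability read 7 days after compound addition.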

Compound `CC1(C)CCC(CN2CCN(c3ccc(C(=O)NS(=O)(=O)c4ccc(NCC5CCOCC5)c([N+](=O)[O-])c4)c(Oc4cnc5[nH]ccc5c4)c3)CC2)=C(c2ccc(Cl)cc2)C1` + CC(Nc1ncnc2nc[nH]c12)c1cc2cccc(Cl)c2c(=O)n1-c1ccccc1 has an IC50 [1] of 7.07 µM, an IC50 [2] of 7.1 µM and an IC50 [3] of 7.17 µM. The IC50 [4] was 6.84 µM, the IC50 [5] was 7.09 µM and the IC50 [6] was 6.79 µM. It also gave a viability, T/C [7] of 105%, a viability, T/C [8] of 105% and a viability, T/C [9] of 102%. It also gave a viability, T/C [10] of 110%, a viability, T/C [11] of 99.3% and a viability, T/C [12] of 28.5%. It also gave a viability, T/C [13] of 113%, a viability, T/C [14] of 112% and a viability, T/C [15] of 105%. It also gave a viability, T/C [16] of 106%, a viability, T/C [17] of 107% and a viability, T/C [18] of 25.9%. For the same compound, the viability, T/C [19] was 103%, the viability, T/C [20] was 98.2% and the viability, T/C [21] was 106%. The viability, T/C [22] was 110%, the viability, T/C [23] was 101% and the viability, T/C [24] was 29.1%. For the same compound, the viability, T/C [25] was 105%, the viability, T/C [26] was 101% and the viability, T/C [27] was 95.3%. For the same compound, the viability, T/C [28] was 103%, the viability, T/C [29] was 92.4% and the viability, T/C [30] was 28.9%. It also gave a viability, T/C [31] of 101%, a viability, T/C [32] of 107% and a viability, T/C [33] of 97.4%. The viability, T/C [34] was 107%, the viability, T/C (second compound 3.16 µM, first compound 3.16 µM) was 99.3% and the viability, T/C (second compound 3.16 µM, first compound 10 µM) was 29%. For the same compound, the viability, T/C [35] was 92.9%, the viability, T/C [36] was 87.7% and the viability, T/C [37] was 98.4%. For the same compound, the viability, T/C [38] was 97.3%, the viability, T/C (second compound 10 µM, first compound 3.16 µM) was 92.6% and the viability, T/C (second compound 10 µM, first compound 10 µM) was 28.4%.
With `CC1(C)CCC(Nc2ncc(C(F)(F)F)c(-c3c[nH]c4c(P(C)(C)=O)c(C#N)ccc34)n2)CN1` (centres undefined) the viability, T/C (compound 0.0316 µM) was 107% [middle of 4 runs], the viability, T/C (compound 0.1 µM) was 102% [middle of 4 runs] and the viability, T/C (compound 0.316 µM) was 89.3% [middle of 4 runs]. The viability, T/C (compound 1 µM) was 85.7% [middle of 4 runs], the viability, T/C (compound 10 µM) was 64.5% [middle of 4 runs] and the IC50 (curve of compound) was > 10 µM.
In the case of `C[C@@H](NC(=O)c1ncnc(N)c1Cl)c1ncc(C(=O)Nc2cc(C(F)(F)F)c(Cl)cn2)s1` + COc1c(OCCCN2CCOCC2)ccc2c3n(c(=NC(=O)c4cnc(N)nc4)nc12)CCN3, the IC50 [39] is reported as > 10 µM, the IC50 [40] is reported as > 10 µM and the IC50 [1] is reported as > 10 µM. For the same compound, the IC50 [2] was 4.05 µM, the IC50 [3] was 1.32 µM and the IC50 [4] was < 0.0316 µM. For the same compound, the viability, T/C [41] was 109%, the viability, T/C [42] was 117% and the viability, T/C [43] was 106%. For the same compound, the viability, T/C [44] was 111%, the viability, T/C [45] was 105% and the viability, T/C [46] was 76%. The viability, T/C [47] was 108%, the viability, T/C [48] was 102% and the viability, T/C [49] was 104%. For the same compound, the viability, T/C [50] was 115%, the viability, T/C [51] was 96.5% and the viability, T/C [52] was 74.2%. The viability, T/C [7] was 95.3%, the viability, T/C [8] was 94.4% and the viability, T/C [9] was 94.7%. It also gave a viability, T/C [10] of 92.1%, a viability, T/C [11] of 76.6% and a viability, T/C [12] of 51%. It also gave a viability, T/C [13] of 86.5%, a viability, T/C [14] of 75.8% and a viability, T/C [15] of 76.6%. It also gave a viability, T/C [16] of 65%, a viability, T/C [17] of 57.2% and a viability, T/C [18] of 33.7%. It also gave a viability, T/C [19] of 58.9%, a viability, T/C [20] of 58.8% and a viability, T/C [21] of 59.4%. The viability, T/C [22] was 51.4%, the viability, T/C [23] was 41.8% and the viability, T/C [24] was 25.1%. For the same compound, the viability, T/C [25] was 45.4%, the viability, T/C [26] was 41% and the viability, T/C [27] was 42.6%. The viability, T/C [28] was 35.2%, the viability, T/C [29] was 32.1% and the viability, T/C [30] was 18.5%.
For `CCN1CCN(Cc2ccc(Nc3ncc(F)c(-c4cc(F)c5nc(C)n(C(C)C)c5c4)n3)nc2)CC1` + CC(Nc1ncnc2nc[nH]c12)c1cc2cccc(Cl)c2c(=O)n1-c1ccccc1, the IC50 [1] was > 1 µM, the IC50 [2] was > 1 µM and the IC50 [3] was > 1 µM. For the same compound, the IC50 [4] was > 1 µM, the IC50 [5] was > 1 µM and the IC50 [6] was > 1 µM. It also gave a viability, T/C (second compound 0.0316 µM, first compound 0.00316 µM) of 102%, a viability, T/C (second compound 0.0316 µM, first compound 0.01 µM) of 94.6% and a viability, T/C [7] of 108%. The viability, T/C [8] was 100%, the viability, T/C [9] was 104% and the viability, T/C [10] was 90.2%. The viability, T/C (second compound 0.1 µM, first compound 0.00316 µM) was 101%, the viability, T/C (second compound 0.1 µM, first compound 0.01 µM) was 110% and the viability, T/C [13] was 104%. The viability, T/C [14] was 109%, the viability, T/C [15] was 100% and the viability, T/C [16] was 84.2%. It also gave a viability, T/C (second compound 0.316 µM, first compound 0.00316 µM) of 111%, a viability, T/C (second compound 0.316 µM, first compound 0.01 µM) of 107% and a viability, T/C [19] of 97.7%. For the same compound, the viability, T/C [20] was 98.5%, the viability, T/C [21] was 109% and the viability, T/C [22] was 98.2%. The viability, T/C (second compound 1 µM, first compound 0.00316 µM) was 103%, the viability, T/C (second compound 1 µM, first compound 0.01 µM) was 101% and the viability, T/C [25] was 105%. For the same compound, the viability, T/C [26] was 102%, the viability, T/C [27] was 102% and the viability, T/C [28] was 86%. It also gave a viability, T/C (second compound 3.16 µM, first compound 0.00316 µM) of 107%, a viability, T/C (second compound 3.16 µM, first compound 0.01 µM) of 93.4% and a viability, T/C [31] of 86.8%. The viability, T/C [32] was 95.3%, the viability, T/C [33] was 92.8% and the viability, T/C [34] was 81.2%. For the same compound, the viability, T/C (second compound 10 µM, first compound 0.00316 µM) was 92%, the viability, T/C (second compound 10 µM, first compound 0.01 µM) was 86.7% and the viability, T/C [35] was 89.7%. It also gave a viability, T/C [36] of 80.8%, a viability, T/C [37] of 81.9% and a viability, T/C [38] of 67.9%.
With `CC(Cn1ccc(-c2ccc(C#N)c(Cl)c2)n1)NC(=O)c1cc(C(C)O)[nH]n1` (centres undefined) + COc1c(OCCCN2CCOCC2)ccc2c3n(c(=NC(=O)c4cnc(N)nc4)nc12)CCN3 the IC50 [39] was > 10 µM, the IC50 [40] was > 10 µM and the IC50 [1] was > 10 µM. For the same compound, the IC50 [2] was > 10 µM, the IC50 [3] was < 0.0316 µM and the IC50 [4] was < 0.0316 µM. The viability, T/C [41] was 95.4%, the viability, T/C [42] was 96.7% and the viability, T/C [43] was 104%. The viability, T/C [44] was 99.4%, the viability, T/C [45] was 99.8% and the viability, T/C [46] was 104%. The viability, T/C [47] was 89.7%, the viability, T/C [48] was 102% and the viability, T/C [49] was 97.8%. It also gave a viability, T/C [50] of 100%, a viability, T/C [51] of 92.5% and a viability, T/C [52] of 85.9%. The viability, T/C [7] was 91.8%, the viability, T/C [8] was 96.4% and the viability, T/C [9] was 78.6%. The viability, T/C [10] was 82.5%, the viability, T/C [11] was 78.4% and the viability, T/C [12] was 70.5%. It also gave a viability, T/C [13] of 68.8%, a viability, T/C [14] of 72.5% and a viability, T/C [15] of 64.9%. For the same compound, the viability, T/C [16] was 65.4%, the viability, T/C [17] was 65.3% and the viability, T/C [18] was 63.1%. It also gave a viability, T/C [19] of 47.5%, a viability, T/C [20] of 44.1% and a viability, T/C [21] of 45.3%. For the same compound, the viability, T/C [22] was 42.4%, the viability, T/C [23] was 47.7% and the viability, T/C [24] was 37.9%. The viability, T/C [25] was 32.5%, the viability, T/C [26] was 34.4% and the viability, T/C [27] was 30.9%. For the same compound, the viability, T/C [28] was 32.5%, the viability, T/C [29] was 34.5% and the viability, T/C [30] was 29.5%.
